Results from US7342122B2, “Bisphosphonate complexes” (priority 2003, dated 2008).
“Also recorded” adds a separate entry of the source.

Assays:
HBC-5 = assay: Cell growth inhibition, breast cancer cell line HBC-5; type: cell-based; conditions: HBC-5, breast cancer cell line
Description: (§1) KB cells were purchased from Human Science Research Resource Bank (Osaka, Japan). The cells were cultured in Earle's MEM (GIBCO BRL) containing 10% FBS (Bio Whittaker) at 37° C. under 5% CO2. After 24 hours the test compounds were added to the cells at the indicated concentrations. 72 hours later the cells were stained with tripan blue and counted manually. IC50 is calculated as the concentration (aqueous solution) of complex required to inhibit growth of cells by 50%.
(§2) In a similar fashion a representative number of examples of compounds of the invention were tested for their ability to inhibit the growth/proliferation of cell types representing a number of different cancers. The results are provided in Tables 4-13, below, which provide the Inhibition Constants (IC50, μM) for each compound across various cell lines.

LOX-IMVI = assay: Cell growth inhibition, melanoma cell line LOX-IMVI; type: cell-based
Description: as §1, §2

MKN28 = assay: Cell growth inhibition, human stomach cancer MKN28; type: cell-based
Description: as §1, §2

SF-268 = assay: Cell growth inhibition, brain cancer cell line SF-268; type: cell-based; conditions: SF-268, brain cancer cell line
Description: as §1, §2

MKN45 = assay: Cell growth inhibition, human stomach cancer MKN45; type: cell-based
Description: as §1, §2

MDA-MB-231 = assay: Cell growth inhibition, breast cancer cell line MDA-MB-231; type: cell-based; conditions: MDA-MB-231, breast cancer cell line
Description: as §1, §2

St-4 = assay: Cell growth inhibition, human stomach cancer St-4; type: cell-based; conditions: St-4, human stomach cancer
Description: as §1, §2

U251 = assay: Cell growth inhibition, brain cancer cell line U251; type: cell-based
Description: as §1, §2

[1] = system: all cell types (cancer cell lines of Tables 4-12); assay: Cell growth inhibition, mean over all cell types of the panel; type: cell-based; conditions: mean over all cell lines of Tables 4-12
Description: as §1, §2

DU-145 = assay: Cell growth inhibition, prostatic cancer DU-145; type: cell-based, human; conditions: DU-145, prostatic cancer
Description: as §1, §2

HBC-4 = assay: Cell growth inhibition, breast cancer cell line HBC-4; type: cell-based; conditions: HBC-4, breast cancer cell line
Description: as §1, §2

OVCAR-4 = assay: Cell growth inhibition, ovarian cancer cell line OVCAR-4; type: cell-based; conditions: OVCAR-4, ovarian cancer cell line
Description: as §1, §2

SF-295 = assay: Cell growth inhibition, brain cancer cell line SF-295; type: cell-based; conditions: SF-295, brain cancer cell line
Description: as §1, §2

BSY-1 = assay: Cell growth inhibition, breast cancer cell line BSY-1; type: cell-based; conditions: BSY-1, breast cancer cell line
Description: as §1, §2

HT-29 = assay: Cell growth inhibition, colon cancer cell line HT-29; type: cell-based; conditions: HT-29, colon cancer cell line
Description: as §1, §2

ACHN = assay: Cell growth inhibition, renal cancer ACHN; type: cell-based
Description: as §1, §2

HCT-116 = assay: Cell growth inhibition, colon cancer cell line HCT-116; type: cell-based; conditions: HCT-116, colon cancer cell line
Description: as §1, §2

SF-539 = assay: Cell growth inhibition, brain cancer cell line SF-539; type: cell-based; conditions: SF-539, brain cancer cell line
Description: as §1, §2

MKN74 = assay: Cell growth inhibition, human stomach cancer MKN74; type: cell-based
Description: as §1, §2

MCF-7 = assay: Cell growth inhibition, breast cancer cell line MCF-7; type: cell-based; conditions: MCF-7, breast cancer cell line
Description: as §1, §2

DMS114 = assay: Cell growth inhibition, lung cancer cell line DMS114; type: cell-based
Description: as §1, §2

HCC2998 = assay: Cell growth inhibition, colon cancer cell line HCC2998; type: cell-based
Description: as §1, §2

DMS273 = assay: Cell growth inhibition, lung cancer cell line DMS273; type: cell-based
Description: as §1, §2

HCT-15 = assay: Cell growth inhibition, colon cancer cell line HCT-15; type: cell-based; conditions: HCT-15, colon cancer cell line
Description: as §1, §2

A549 = assay: Cell growth inhibition, lung cancer cell line A549; type: cell-based
Description: as §1, §2

SNB-75 = assay: Cell growth inhibition, brain cancer cell line SNB-75; type: cell-based; conditions: SNB-75, brain cancer cell line
Description: as §1, §2

NCI-H23 = assay: Cell growth inhibition, lung cancer cell line NCI-H23; type: cell-based
Description: as §1, §2

MKN7 = assay: Cell growth inhibition, human stomach cancer MKN7; type: cell-based
Description: as §1, §2

SK-OV-3 = assay: Cell growth inhibition, ovarian cancer cell line SK-OV-3; type: cell-based; conditions: SK-OV-3, ovarian cancer cell line
Description: as §1, §2

MKN1 = assay: Cell growth inhibition, human stomach cancer MKN1; type: cell-based
Description: as §1, §2

NCI-H460 = assay: Cell growth inhibition, lung cancer cell line NCI-H460; type: cell-based
Description: as §1, §2

KM-12 = assay: Cell growth inhibition, colon cancer cell line KM-12; type: cell-based; conditions: KM-12, colon cancer cell line
Description: as §1, §2

PC-3 = assay: Cell growth inhibition, prostatic cancer PC-3; type: cell-based; conditions: PC-3, prostatic cancer
Description: as §1, §2

SNB-78 = assay: Cell growth inhibition, brain cancer cell line SNB-78; type: cell-based; conditions: SNB-78, brain cancer cell line
Description: as §1, §2

NCI-H226 = assay: Cell growth inhibition, lung cancer cell line NCI-H226; type: cell-based
Description: as §1, §2

NCI-H522 = assay: Cell growth inhibition, lung cancer cell line NCI-H522; type: cell-based
Description: as §1, §2

OVCAR-3 = assay: Cell growth inhibition, ovarian cancer cell line OVCAR-3; type: cell-based; conditions: OVCAR-3, ovarian cancer cell line
Description: as §1, §2

OVCAR-8 = assay: Cell growth inhibition, ovarian cancer cell line OVCAR-8; type: cell-based; conditions: OVCAR-8, ovarian cancer cell line
Description: as §1, §2

RXF-631L = assay: Cell growth inhibition, renal cancer RXF-631L; type: cell-based
Description: as §1, §2

OVCAR-5 = assay: Cell growth inhibition, ovarian cancer cell line OVCAR-5; type: cell-based; conditions: OVCAR-5, ovarian cancer cell line
Description: as §1, §2

[2] = In vitro assay, adsorption of Pt complexes to hydroxyapatite; type: binding; conditions: for adsorption percentage to hydroxyapatite: 100 mg of hydroxyapatite, HEPES buffer pD=7.8, 1.5 h, 37° C.; for adsorption to hydroxyapatite, comparison in words: FIGS. 1 and 2, 31P NMR, 1H NMR, AAS
Description: Each of a 5, 10, 15, 25, 35, and 100 mg sample of hydroxyapatite (Bio-Rad Macro-Prep Ceramic Hydroxyapatite, type I, 40 μm) was added to 2 ml of HEPES buffer at pD=7.8 and the resulting mixture was shaken for about 24 h at 37° C. Then, 100 μl of each complexes dissolved in HEPES buffer at pD=7.8 was added and the mixtures were shaken for 1.5 h at 37° C. All suspensions were filtered, and these solutions were measured by ^31P NMR (Varian VXR-300S) and Atomic Absorption Spectrometry (Hitachi Z-5710 AAS) of platinum or, for carboplatin, by ^1H NMR. Percentage adsorption to hydroxyapatite was calculated as follows. From NMR: Binding percentage/%=[(A−B)/A]×100 From AAS: Binding percentage/%=[(C−D)/C]×100 • A=the integration intensity of Pt(II) complex • B=the integration intensity of Pt(II) complex after reacted with hydroxyapatite • C=the concentration of Pt(II) complex • D=the concentration of Pt(II) complex after reacted with hydroxyapatite

[Cl-].[Cl-].c1cc[n+]2c(c1)-c1cccc[n+]1[Pt-2]21[NH2+]CCC[NH+]1Cc1c2ccccc2cc2ccccc12 [Example 7, Pt(bpy)(AtC3)]
log10 IC50 (M) (HBC-5): -5.89
log10 IC50 (M) (LOX-IMVI): -5.76
log10 IC50 (M) (MKN28): -5.64
log10 IC50 (M) (SF-268): -5.62
log10 IC50 (M) (MKN45): -5.63
log10 IC50 (M) (MDA-MB-231): -5.78
log10 IC50 (M) (St-4): -5.61
log10 IC50 (M) (U251): -5.66
log10 IC50 (M) [1]: -5.68
log10 IC50 (M) (DU-145): -5.73
log10 IC50 (M) (HBC-4): -5.76
log10 IC50 (M) (OVCAR-4): -5.7
log10 IC50 (M) (SF-295): -5.62
log10 IC50 (M) (BSY-1): -5.89
log10 IC50 (M) (HT-29): -5.69
log10 IC50 (M) (ACHN): -5.67
log10 IC50 (M) (HCT-116): -5.72
log10 IC50 (M) (SF-539): -5.75
log10 IC50 (M) (MKN74): -5.63
log10 IC50 (M) (MCF-7): -5.69
log10 IC50 (M) (DMS114): -5.76
log10 IC50 (M) (HCC2998): -5.7
log10 IC50 (M) (DMS273): -5.68
log10 IC50 (M) (HCT-15): -5.56
log10 IC50 (M) (A549): -5.68
log10 IC50 (M) (SNB-75): -5.59
log10 IC50 (M) (NCI-H23): -5.53
log10 IC50 (M) (MKN7): -5.62
log10 IC50 (M) (SK-OV-3): -5.61
log10 IC50 (M) (MKN1): -5.6
log10 IC50 (M) (NCI-H460): -5.71
log10 IC50 (M) (KM-12): -5.69
log10 IC50 (M) (PC-3): -5.59
log10 IC50 (M) (SNB-78): -5.54
log10 IC50 (M) (NCI-H226): -5.64
log10 IC50 (M) (NCI-H522): -5.77
log10 IC50 (M) (OVCAR-3): -5.68
log10 IC50 (M) (OVCAR-8): -5.52
log10 IC50 (M) (RXF-631L): -5.67
log10 IC50 (M) (OVCAR-5): -5.8

O=P1(O)CP(=O)(O)[O][Pt]2([NH][C@@H]3CCCC[C@H]3[NH]2)[O]1 (some centres unmarked) [Example 2, Pt(dach)(MDP)]
adsorption percentage to hydroxyapatite [2]: 79.6%
adsorption to hydroxyapatite, comparison in words [2]: adsorbed slightly more than cis-Pt(NH3)2(MDP); also recorded: adsorbed quite significantly more than carboplatin

[NH2][Pt]1([NH2])[O]P(=O)(O)CP(=O)(O)[O]1 [Example 1, cis-Pt(NH3)2(MDP)]
adsorption percentage to hydroxyapatite [2]: 69.3%
adsorption to hydroxyapatite, comparison in words [2]: adsorbed quite significantly more than carboplatin
